Experimental data from publication PMC2896053 (Pharmaceutical research, 2009).
Entries after “also recorded” stand apart in the source; their conditions may differ. Counter-ions that a name gives are not always drawn.

What was measured:
[1] = male, Sprague Dawley, rat, in vivo
[2] = female, NuNu, mouse, in vivo, 30 min
[3] = cited from earlier work
[4] = capillary depletion after in situ brain perfusion; assay type: in vivo, rat; conditions: 120 s perfusion, 30 s post wash
[5] = target: low density lipoprotein receptor-related protein (LRP) (Rattus norvegicus, UniProt G3V928); assay: brain 125I-ANG1005 uptake with co-perfused unlabeled angiopep-2 or LRP ligands; assay type: in vivo; conditions: co-perfusion 120 s with 10 or 100 μM unlabeled angiopep-2, P<0.05
[6] = system: brain endothelial monolayer system; conditions: cited from earlier work
[7] = cited from earlier work; remark: listed apart in the source
[8] = in situ rat brain perfusion, BBB transfer coefficient; conditions: P>0.05
[9] = system: BBB transport of 125I-ANG1005; assay: brain 125I-ANG1005 uptake with co-perfused transport inhibitors; assay type: in vivo, rat; conditions: P>0.05

Chain of low density lipoprotein receptor-related protein (LRP) (G3V928 20-3944 limits assumed): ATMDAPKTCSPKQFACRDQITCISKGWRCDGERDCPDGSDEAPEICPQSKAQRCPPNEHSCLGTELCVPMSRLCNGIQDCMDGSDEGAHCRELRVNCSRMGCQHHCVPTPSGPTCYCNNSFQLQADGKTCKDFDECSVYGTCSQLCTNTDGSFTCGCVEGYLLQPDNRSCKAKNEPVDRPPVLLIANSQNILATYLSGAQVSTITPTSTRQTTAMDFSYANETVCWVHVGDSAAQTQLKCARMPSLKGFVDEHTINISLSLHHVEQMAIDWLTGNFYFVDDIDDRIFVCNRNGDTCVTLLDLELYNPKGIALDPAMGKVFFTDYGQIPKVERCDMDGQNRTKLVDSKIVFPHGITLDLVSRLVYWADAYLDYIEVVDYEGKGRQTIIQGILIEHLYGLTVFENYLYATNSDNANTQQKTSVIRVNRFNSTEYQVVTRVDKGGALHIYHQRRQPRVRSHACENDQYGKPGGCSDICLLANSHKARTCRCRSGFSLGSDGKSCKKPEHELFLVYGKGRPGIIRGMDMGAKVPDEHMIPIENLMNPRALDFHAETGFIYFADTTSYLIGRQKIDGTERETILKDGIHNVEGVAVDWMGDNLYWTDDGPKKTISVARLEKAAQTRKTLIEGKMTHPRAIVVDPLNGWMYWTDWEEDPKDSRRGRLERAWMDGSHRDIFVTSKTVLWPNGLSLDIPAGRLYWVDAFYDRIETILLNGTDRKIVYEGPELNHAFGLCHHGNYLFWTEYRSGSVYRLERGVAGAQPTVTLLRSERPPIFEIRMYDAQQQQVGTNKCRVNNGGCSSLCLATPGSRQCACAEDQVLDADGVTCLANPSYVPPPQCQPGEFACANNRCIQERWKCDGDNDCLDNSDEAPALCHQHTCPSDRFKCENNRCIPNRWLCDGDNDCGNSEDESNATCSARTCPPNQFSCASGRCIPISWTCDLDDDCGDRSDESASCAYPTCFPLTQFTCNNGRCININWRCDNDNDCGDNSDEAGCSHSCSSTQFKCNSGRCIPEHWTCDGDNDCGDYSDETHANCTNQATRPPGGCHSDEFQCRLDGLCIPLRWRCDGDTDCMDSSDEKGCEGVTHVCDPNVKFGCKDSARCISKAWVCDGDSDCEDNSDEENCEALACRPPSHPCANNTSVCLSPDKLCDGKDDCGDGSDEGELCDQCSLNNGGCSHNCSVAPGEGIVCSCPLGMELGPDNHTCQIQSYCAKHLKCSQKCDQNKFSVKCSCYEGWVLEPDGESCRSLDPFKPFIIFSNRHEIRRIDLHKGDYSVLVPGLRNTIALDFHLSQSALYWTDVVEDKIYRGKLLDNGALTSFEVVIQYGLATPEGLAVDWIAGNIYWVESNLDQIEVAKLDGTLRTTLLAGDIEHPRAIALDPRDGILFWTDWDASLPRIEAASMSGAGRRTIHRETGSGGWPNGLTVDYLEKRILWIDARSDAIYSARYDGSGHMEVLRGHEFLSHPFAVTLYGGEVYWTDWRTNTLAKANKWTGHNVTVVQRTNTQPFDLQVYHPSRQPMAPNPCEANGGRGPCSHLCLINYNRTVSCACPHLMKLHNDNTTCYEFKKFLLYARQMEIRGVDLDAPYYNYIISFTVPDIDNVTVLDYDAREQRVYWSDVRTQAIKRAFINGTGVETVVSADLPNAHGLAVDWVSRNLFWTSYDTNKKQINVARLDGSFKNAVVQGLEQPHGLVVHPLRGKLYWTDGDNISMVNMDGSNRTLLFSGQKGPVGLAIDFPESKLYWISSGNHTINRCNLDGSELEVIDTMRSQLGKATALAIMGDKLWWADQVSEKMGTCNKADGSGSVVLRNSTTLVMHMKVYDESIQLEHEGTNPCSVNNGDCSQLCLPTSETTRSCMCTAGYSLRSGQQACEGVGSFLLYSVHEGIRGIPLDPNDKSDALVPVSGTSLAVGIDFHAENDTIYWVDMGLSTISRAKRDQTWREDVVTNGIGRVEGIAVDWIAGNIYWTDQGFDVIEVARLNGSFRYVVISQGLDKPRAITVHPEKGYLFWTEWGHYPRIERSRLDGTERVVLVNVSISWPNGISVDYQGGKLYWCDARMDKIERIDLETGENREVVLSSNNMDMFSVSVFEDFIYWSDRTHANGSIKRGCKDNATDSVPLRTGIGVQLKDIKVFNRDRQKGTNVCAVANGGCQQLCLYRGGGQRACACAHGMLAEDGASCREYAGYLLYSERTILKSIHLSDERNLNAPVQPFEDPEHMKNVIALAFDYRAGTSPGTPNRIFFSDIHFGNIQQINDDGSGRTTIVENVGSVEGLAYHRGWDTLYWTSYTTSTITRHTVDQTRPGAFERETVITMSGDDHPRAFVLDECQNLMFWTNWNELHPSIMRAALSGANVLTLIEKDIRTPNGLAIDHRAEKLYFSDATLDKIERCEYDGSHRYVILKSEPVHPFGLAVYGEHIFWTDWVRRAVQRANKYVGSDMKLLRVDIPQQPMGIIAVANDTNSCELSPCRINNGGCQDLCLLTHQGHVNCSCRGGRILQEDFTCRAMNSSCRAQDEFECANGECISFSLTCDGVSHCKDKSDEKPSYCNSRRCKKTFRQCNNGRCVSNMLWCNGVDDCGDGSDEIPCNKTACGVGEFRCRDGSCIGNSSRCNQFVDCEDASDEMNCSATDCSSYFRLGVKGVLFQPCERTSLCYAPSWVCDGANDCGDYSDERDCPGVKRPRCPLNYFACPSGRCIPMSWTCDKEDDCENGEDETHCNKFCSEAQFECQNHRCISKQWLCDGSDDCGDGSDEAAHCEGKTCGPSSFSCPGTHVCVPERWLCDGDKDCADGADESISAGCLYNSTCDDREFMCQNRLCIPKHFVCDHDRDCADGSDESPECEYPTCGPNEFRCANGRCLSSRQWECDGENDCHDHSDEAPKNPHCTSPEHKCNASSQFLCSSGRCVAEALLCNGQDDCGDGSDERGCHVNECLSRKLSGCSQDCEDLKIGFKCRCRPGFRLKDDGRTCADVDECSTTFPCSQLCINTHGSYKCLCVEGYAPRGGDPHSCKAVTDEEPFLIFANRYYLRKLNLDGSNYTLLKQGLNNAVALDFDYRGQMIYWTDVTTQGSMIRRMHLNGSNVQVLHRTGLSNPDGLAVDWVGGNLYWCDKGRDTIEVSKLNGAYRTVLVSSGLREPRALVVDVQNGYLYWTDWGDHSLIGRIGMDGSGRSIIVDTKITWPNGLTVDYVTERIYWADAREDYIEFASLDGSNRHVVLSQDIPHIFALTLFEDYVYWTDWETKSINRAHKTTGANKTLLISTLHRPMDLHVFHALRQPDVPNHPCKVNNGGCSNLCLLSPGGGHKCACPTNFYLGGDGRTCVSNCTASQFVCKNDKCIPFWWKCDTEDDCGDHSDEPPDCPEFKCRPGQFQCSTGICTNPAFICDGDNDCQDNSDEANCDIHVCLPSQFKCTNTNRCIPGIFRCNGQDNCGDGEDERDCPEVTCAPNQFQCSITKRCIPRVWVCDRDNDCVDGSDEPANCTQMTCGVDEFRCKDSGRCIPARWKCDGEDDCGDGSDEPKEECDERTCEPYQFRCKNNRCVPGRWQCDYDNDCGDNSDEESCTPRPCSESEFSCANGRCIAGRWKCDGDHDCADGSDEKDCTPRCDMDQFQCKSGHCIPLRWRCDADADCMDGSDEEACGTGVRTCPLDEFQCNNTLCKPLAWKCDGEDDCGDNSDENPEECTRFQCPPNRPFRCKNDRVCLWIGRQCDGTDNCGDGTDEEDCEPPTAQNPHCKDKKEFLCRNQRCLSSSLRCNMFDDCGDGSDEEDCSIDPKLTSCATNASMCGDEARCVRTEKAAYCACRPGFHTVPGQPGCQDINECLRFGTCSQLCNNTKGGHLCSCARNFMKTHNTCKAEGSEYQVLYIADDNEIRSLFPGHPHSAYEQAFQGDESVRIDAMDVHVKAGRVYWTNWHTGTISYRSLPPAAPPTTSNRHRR
Chain of low density lipoprotein receptor-related protein (LRP) (G3V928 3945-4545 limits assumed): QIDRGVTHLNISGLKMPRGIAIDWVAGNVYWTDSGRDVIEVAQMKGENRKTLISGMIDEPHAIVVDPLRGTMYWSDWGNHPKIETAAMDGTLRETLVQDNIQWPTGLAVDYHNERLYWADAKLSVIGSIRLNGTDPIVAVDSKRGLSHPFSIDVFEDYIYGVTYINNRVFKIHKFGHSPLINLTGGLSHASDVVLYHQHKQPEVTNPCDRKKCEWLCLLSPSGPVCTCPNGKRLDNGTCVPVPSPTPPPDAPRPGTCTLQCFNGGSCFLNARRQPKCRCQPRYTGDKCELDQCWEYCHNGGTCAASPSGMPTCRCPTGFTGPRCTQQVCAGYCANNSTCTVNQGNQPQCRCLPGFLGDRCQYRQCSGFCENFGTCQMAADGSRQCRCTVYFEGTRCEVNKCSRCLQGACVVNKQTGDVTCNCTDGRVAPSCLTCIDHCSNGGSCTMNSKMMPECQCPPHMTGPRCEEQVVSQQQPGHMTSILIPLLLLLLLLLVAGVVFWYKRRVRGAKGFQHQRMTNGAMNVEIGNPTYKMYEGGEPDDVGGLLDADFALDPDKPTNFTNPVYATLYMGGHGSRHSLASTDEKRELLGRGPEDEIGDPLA

CC(=O)O[C@H]1C(=O)[C@@]2(C)[C@H]([C@H](OC(=O)c3ccccc3)[C@]3(O)C[C@H](OC(=O)[C@H](O)[C@@H](NC(=O)c4ccccc4)c4ccccc4)C(C)=C1C3(C)C)[C@]1(OC(C)=O)CO[C@@H]1C[C@@H]2O [paclitaxel]
BBB transfer coefficient (Kin) for brain uptake [1]: 8.5 ± 0.5 × 10^−5 mL/s/g | lowering of brain drug content by vascular correction [2]: ~ 84% | rise of brain paclitaxel concentrations on inhibition of active efflux transport [3]: 6–10 fold

angiopep-2
brain tracer in parenchymal fraction [4]: > 70% | brain tracer in vascular (capillary) pellet [4]: < 30% | reduction of brain 125I-ANG1005 uptake [5]: 30–40% | transcytosis across a brain endothelial monolayer system in vitro [6]: enhanced transcytosis | brain uptake by in situ perfusion [7]: improved brain uptake | brain 14C-sucrose space in the presence of the tracer (BBB permeability) [8]: not altered from control

CN(C)CCCN1c2ccccc2Sc2ccc(Cl)cc21 [chlorpromazine, chlorpromazine hydrochloride]
effect on Kin for brain uptake of 125I-ANG1005 ([9]; co-perfusion with chlorpromazine 100 μM): None of the four agents produced a statistically significant decrease; also recorded: failed to alter

N[C@@H](Cc1ccccc1)C(=O)O [L-phenylalanine]
effect on Kin for brain uptake of 125I-ANG1005 ([9]; co-perfusion with L-phenylalanine 1 mM): None of the four agents produced a statistically significant decrease; also recorded: not inhibited

OC[C@H]1O[C@@](CO)(O[C@H]2O[C@H](CO)[C@@H](O)[C@H](O)[C@H]2O)[C@@H](O)[C@@H]1O [^14C-sucrose, sucrose]
brain vascular volume Vv (brain distribution space of 14C-sucrose) [1]: 1.2 ± 0.2 × 10^−2 mL/g

COc1ccc2c(c1)c(CC(=O)O)c(C)n2C(=O)c1ccc(Cl)cc1 [indomethacin]
effect on Kin for brain uptake of 125I-ANG1005 ([9]; co-perfusion with indomethacin 300 μM): None of the four agents produced a statistically significant decrease; also recorded: failed to alter

poly-L-lysine
effect on Kin for brain uptake of 125I-ANG1005 ([9]; co-perfusion with poly-l-lysine 25 μM): not inhibited | effect on Kin for brain uptake of 125I-ANG1005 ([9]; co-perfusion with poly-l-lysine 25 μM, listed as poly-l-lysine): None of the four agents produced a statistically significant decrease
